The values below come from paper PMC3506555, “[^11C]phenytoin revisited: synthesis by [^11C]CO carbonylation and first evaluation as a P-gp tracer in rats” (EJNMMI Research, 2012).

Series [1] has as its system P-gp. Also noted: method as in PMID 14642487, PMID 16857389, PMID 15961982, PMID 18783208, PMID 19647170. The note with it: rat and human brain; cited from earlier work.
Series [2] can be described thus: Observation of animals after probenecid administration. The note with it: probenecid 150 mg·kg^−1 i.v., during 30 to 40 min after administration. Type of series: in vivo.

As for `COc1cc2c(cc1OC)CN(CCc1ccc(NC(=O)c3cc(O[11CH3])c(OC)cc3NC(=O)c3cnc4ccccc4c3)cc1)CC2` [^11C]tariquidar], the “Brain-to-plasma equilibrium concentration ratio (VT) at baseline” value in series [1] is listed as “about 1”.

On to `[11CH3]NC(=O)C(CCN1CCC(O)(c2ccc(Cl)cc2)CC1)(c1ccccc1)c1ccccc1` [^11C]desmethyl loperamide], for which the “Brain-to-plasma equilibrium concentration ratio (VT) at baseline” value in series [1] was “about 1”.

On to `COC(=O)c1cnc2n1CCc1ccccc1C2=C1CCN(CCc2ccc(OCc3ccc4ccccc4n3)cc2)CC1` [^11C]laniquidar], for which, in series [1], the “Brain-to-plasma equilibrium concentration ratio (VT) at baseline” value was “about 1”.

`CCCN(CCC)S(=O)(=O)c1ccc(C(=O)O)cc1` [probenecid]: the “Breathing frequency after administration” value in series [2] is on record as “severely depressed breathing frequency”.
